The record followed here is US20120165319A1, “INHIBITORS OF INTERLEUKIN-1 BETA CONVERTING ENZYME” (VERTEX PHARMACEUTICALS INCORPORATED, priority 1995, published 2012).

Test system in one data set: not given
Assay: not given
Settings: not given
Turning to `COc1cc(C(=O)N[C@H]2CCC(=O)N3CCC[C@@H](C(=O)N[C@H](C=O)CC(=O)O)N3C2=O)cc(OC)c1OC` [Compound 417, [3S(1S,9S)]3-[6,10-Dioxo-1,2,3,4,7,8,9,10-octahydro-9-(3,4,5-trimethoxybenzoylamino)-6H-pyridazino[1,2-a][1,2]diazepine-1-carboxamido]-4-oxobutanoic acid], the melting point (as a rule, the temperature of the solid-liquid transition) lay within 145 to 155 °C.
Same read-out and setting: to `O=C[C@H](CC(=O)O)NC(=O)[C@@H]1CCCN2CCC[C@H](NC(=O)c3ccccc3)C(=O)N12` [Compound 246] belongs 110 to 115 °C; to `O=C(O)C[C@H](NC(=O)[C@@H]1CCCN2C(=O)CC[C@H](NC(=O)c3ccccc3)C(=O)N12)C(=O)c1nc2cc(Cl)cc(Cl)c2o1` [Compound 223e, [3S(1S,9S)]3-(9-Benzoylamino-6,10-dioxo-1,2,3,4,7,8,9,10-octahydro-6H-pyridazino-[1,2-a][1,2]diazepine-1-carboxamido)-4-(5,7-dichlorobenzoxazol-2-yl)-4-oxobutanoic acid], 167 to 180 °C.
`O=C(O)C[C@H](NC(=O)[C@@H]1CCCN2C(=O)CC[C@H](NC(=O)c3ccccc3)C(=O)N12)C(=O)CSCc1ccccc1Cl` [Compound 226e, [3S(1S,9S)]3-(9-Benzoylamino-6,10-dioxo-1,2,3,4,7,8,9,10-octahydro-6H-pyridazino[1,2-a][1,2]-diazepine-1-carboxamido)-5-(2-chlorophenyl)methylthio-4-oxopentanoic acid] returned a melting point of 95 to 100 °C.
As to `O=C[C@H](CC(=O)O)NC(=O)[C@@H]1CCCN2C(=O)CC[C@H](NC(=O)c3ccc4c(c3)OCO4)C(=O)N12` [Compound 415, [3S(1S,9S)]3-[6,10-Dioxo-9-(3,4-methylenedioxybenzoylamino)-1,2,3,4,7,8,9,10-octahydro-6H-pyridazino[1,2-a][1,2]diazepine-1-carboxamido]-4-oxobutanoic acid], the melting point fell in the range of 158 to 162 °C.
As to `COC(=O)N[C@H]1CCC(=O)N2CCC[C@@H](C(=O)N[C@@H](CC(=O)O)C(=O)CSc3ncccn3)N2C1=O` [Compound 511c, [3S(1S,9S)]3-[6,10-Dioxo-9-(methoxycarbonyl)-amino-1,2,3,4,7,8,9,10-octahydro-6H-pyridazino[1,2-a][1,2]diazepine-1-carboxamido]-5-(2-mercaptopyrimidine)-4-oxopentanoic acid], the melting point is 105 °C (dec.).
The same measure, in the same setting: the value for `O=C[C@H](CC(=O)O)NC(=O)[C@@H]1CCCN2C(=O)CCN(NC(=O)c3ccc4c(c3)OCO4)C(=O)N12` [Compound 1015, [3S(4S)]3-[6,10-Dioxo-7-(3,4-methylenedioxybenzoylamino)-1,2,3,4,7,8,9,10-octahydro-6H-pyridazino[1,2-a][1,2,4]triazepine-4-carboxamido]-4-oxobutanoic acid] was 170 to 175 °C.
For `O=C[C@H](CC(=O)O)NC(=O)[C@@H]1CCCN2C(=O)CC[C@H](NC(=O)c3cccc4ccccc34)C(=O)N12` [Compound 408, [3S(1S,9S)]3-[6,10-Dioxo-9-(naphth-1-oylamino)-1,2,3,4,7,8,9,10-octahydro-6H-pyridazino[1,2-a][1,2]diazepine-1-carboxamido]-4-oxobutanoic acid], the melting point lay in the range of 157 to 165 °C.
The same measure, in the same setting: the value for `O=C[C@H](CC(=O)O)NC(=O)[C@@H]1CCCN2C(=O)CC[C@H](NC(=O)c3ccc(NC(=O)Cc4ccccc4)cc3)C(=O)N12` [Compound 486, [3S(1S,9S)]3-{6,10-Dioxo-1,2,3,4,7,8,9,10-octahydro-9-[4-(phenylacetamido)benzamido]-6H-pyridazino[1,2-a][1,2]diazepine-1-carboxamido}-4-oxobutanoic acid] was 165 to 169 °C; that for `CC(=O)Nc1ccc(C(=O)NN2CCC(=O)N3CCC[C@@H](C(=O)N[C@H](C=O)CC(=O)O)N3C2=O)cc1` [Compound 1018, [3S(4S)]3-{7-[(4-Acetamido)benzamido]-6,10-Dioxo-1,2,3,4,7,8,9,10-octahydro-6H-pyridazino[1,2-a][1,2,4]-triazepine-4-carboxamido}-4-oxobutanoic acid] was 235 to 240 °C.
The compound `O=C[C@H](CC(=O)O)NC(=O)[C@@H]1CCCN2C(=O)CCN(NC(=O)c3cc4ccccc4[nH]3)C(=O)N12` [Compound 1075, [3S(4S)]3-[6,10-Dioxo-7-(indole-2-carboxamido)-1,2,3,4,7,8,9,10-octahydro-6H-pyridazino[1,2-a][1,2,4]triazepine-4-carboxamido]-4-oxobutanoic acid] returned a melting point of 210 to 215 °C.
Same read-out and setting: to `O=C[C@H](CC(=O)O)NC(=O)[C@@H]1CCCN2C(=O)CC[C@H](NC(=O)c3cc4ccccc4[nH]3)C(=O)N12` [Compound 475, [3S(1S,9S)]3-[6,10-Dioxo-9-(indol-2-oylamino)-1,2,3,4,7,8,9,10-octahydro-6H-pyridazino[1,2-a][1,2]diazepine-1-carboxamido]-4-oxobutanoic acid] belongs 150 °C; to `O=C1C[C@H](NC(=O)[C@@H]2CCCN3C(=O)CC[C@H](NC(=O)c4cccc5ccccc45)C(=O)N23)C(OCc2ccccc2)O1` (stereo partly drawn) [Compound 213v, [1S,9S(2RS,3S)]N-(2-Benzyloxy-5-oxotetrahydrofuran-3-yl)-6,10-dioxo-9-(naphth-1-oylamino)-1,2,3,4,7,8,9,10-octahydro-6H-pyridazino[1,2-a][1,2]diazepine-1-carboxamide], 121 to 127 °C.
The same measure, in the same setting: the value for `CC(C)CC(=O)Nc1ccc(C(=O)N[C@H]2CCC(=O)N3CCC[C@@H](C(=O)N[C@H](C=O)CC(=O)O)N3C2=O)cc1` [Compound 487, [3S(1S,9S)]3-{6,10-Dioxo-9-[4-(3-methylbutan-1-oylamino)benzamido]-1,2,3,4,7,8,9,10-octahydro-6H-pyridazino[1,2-a][1,2]diazepine-1-carboxamido}-4-oxobutanoic acid] was 176 to 180 °C; that for `O=C1C[C@H](NC(=O)[C@@H]2CCCN3C(=O)CC[C@H](NC(=O)c4ccccc4)C(=O)N23)[C@H](OCc2ccccc2)O1` [Compound 2100o, [1S,9S(2R,3S)]9-Benzoylamino-N-(2-benzyloxy-5-oxotetrahydrofuran-3-yl)-6,10-dioxo-1,2,3,4,7,8,9,10-octahydro-6H-pyridazino[1,2-a][1,2]diazepine-1-carboxamide] was 115 to 117 °C; that for `Cc1ccccc1C(=O)N[C@H]1CCC(=O)N2CCC[C@@H](C(=O)N[C@H](C=O)CC(=O)O)N2C1=O` [Compound 404] was 156 to 159 °C.
Regarding `O=C1C[C@H](NC(=O)[C@@H]2CCCN3C(=O)CC[C@H](NC(=O)c4ccccc4)C(=O)N23)C(OCc2ccccc2)O1` (single isomer, unassigned) [Compound 2100n], the melting point lay in the range of 112 to 115 °C.
In turn, `CC(=O)Nc1cccc(C(=O)N[C@H]2CCC(=O)N3CCC[C@@H](C(=O)N[C@H](C=O)CC(=O)O)N3C2=O)c1` [Compound 450, [3S(1S,9S)]3-{9-[(3-Acetamido)benzamido]-6,10-dioxo-1,2,3,4,7,8,9,10-octahydro-6H-pyridazino[1,2-a][1,2]diazepine-1-carboxamido}-4-oxobutanoic acid] yielded a melting point of 175 to 179 °C.

In another data set the target is T1, ICE (Homo sapiens, UniProt P29466).
T1 sequence (P29466 120-297 limits assumed): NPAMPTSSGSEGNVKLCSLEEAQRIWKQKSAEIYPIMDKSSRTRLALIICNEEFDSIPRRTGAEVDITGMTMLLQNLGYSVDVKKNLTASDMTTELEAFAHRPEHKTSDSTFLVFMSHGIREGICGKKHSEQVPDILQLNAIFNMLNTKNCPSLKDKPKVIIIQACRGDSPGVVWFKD
T1 sequence (P29466 317-404 limits assumed): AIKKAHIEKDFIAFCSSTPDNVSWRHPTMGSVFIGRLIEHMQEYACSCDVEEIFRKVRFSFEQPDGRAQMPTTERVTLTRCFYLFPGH
Briefly: Enzyme assay with fluorescent substrate (Acetyl-Tyr-Val-Ala-Asp-AMC); Ki and second order rate constants kinact. In kind it is biochemical. To be noted: Table 6. Here is the method: 2. Enzyme Assay with Fluorescent Substrate
This assay is run essentially according to Thornberry et al. (Nature 356: 768-774 (1992)), using substrate 17 referenced in that article. The substrate is: Acetyl-Tyr-Val-Ala-Asp-amino-4-methylcoumarin (AMC). The following components are mixed:
The assay is run in a 96 well microtiter plate. Buffer and ICE are added to the wells. The components are left to incubate at 37° C. for 15 minutes in a temperature-controlled wellplate. After the 15 minute incubation, the reaction is started by adding substrate directly to the wells and the reaction is monitored @37° C. for 30 minutes by following the release of the AMC fluorophore using an excitation wavelength for 380 nm and an emission wavelength of 460 nm. A linear fit of the data for each well is performed and a rate is determined in fluorescence units per second.
For determination of enzyme inhibition constants (Ki) or the mode of inhibition (competitive, uncompetitive or noncompetitive), the rate data determined in the enzyme assays at varying inhibitor concentrations are computer-fit to standard enzyme kinetic equations (see I. H. Segel, Enzyme Kinetics, Wiley-Interscience, 1975).
The determination of second order rate constants for irreversible inhibitors was performed by fitting the fluorescence vs time data to the progress equations of Morrison. Morrison, J. F., Mol. Cell. Biophys., 2, pp. 347-368 (1985). Thornberry et al. have published a description of these methods for measurement of rate constants of irreversible inhibitors of ICE. Thornberry, N. A., et al. Biochemistry, 33, pp. 3923-3940 (1994). For compounds where no prior complex formation can be observed kinetically, the second order rate constants (kinact) are derived directly from the slope of the linear plots of kobs vs. [I]. For compounds where prior complex formation to the enzyme can be detected, the hyperbolic plots of kobs vs. [I] are fit to the equation for saturation kinetics to first generate Ki and k′. The second order rate constant kinact is then given by k′/Ki.
The selectivity of a panel of reversible inhibitors for ICE homologs is depicted in Table 1. ICE enzyme assays were performed according to Wilson et al (supra 1994) using a YVAD-AMC substrate (Thornberry et al, supra 1992). Assay of TX activity was performed using the ICE substrate under identical conditions to ICE. Assay of CPP32 was performed using a DEVD-AMC substrate (Nicholson et al., supra 1995). In general, there is low selectivity between ICE and TX for a wide range of scaffolds. None of the synthetic ICE compounds tested are effective inhibitors of CPP32.
Second-order rate constants for inactivation of ICE and ICE homologs with selected irreversible inhibitors are presented below (Table 2). The irreversible compounds studied are broad spectrum inhibitors of ICE and its homologs. Some selectivity, however, is observed with the irreversible compounds comparing inhibition of ICE and CPP32.
Consider `COC(=O)N[C@H]1CCC(=O)N2CCC[C@@H](C(=O)N[C@@H](CC(=O)O)C(=O)COC(=O)c3c(Cl)cccc3Cl)N2C1=O` [Compound 284, [3S(1S,9S)]5-(2,6-Dichlorobenzoyloxy)-3-[6,10-dioxo-9-(methoxycarbonyl)amino-1,2,3,4,7,8,9,10-octahydro-6H-pyridazino[1,2-a][1,2]diazepine-1-carboxamido]-4-oxopentanoic acid], for which the “Fluorescent Assay kinact” value is 3.5 × 10^5 m^−1 s^−1.

The same data set, now with this note: Table 18.
With “[3S(1S,9S)]3-[(6,10-Dioxo-9-(methanesulphonylamino)-1,2,3,4,7,8,9,10-octahydro-6H-pyridazino[1,2-a][1,2]diazepine-1-carboxamido]-5-(5-methyl-3-phenylisoxazoyloxy)-4-oxopentanoic acid [505 b]”, the “Fluorescent Assay kinact” value is on record as 190000 m^−1 s^−1.
